Read-outs that look alike come from different tables or passages of the source.
Legend:
Type in all cases: biochemical
FLT3D835Y kinase = target: T1, FLT3D835Y kinase (Homo sapiens, UniProt P36888, D835Y); assay: FLT3D835Y kinase inhibition assay (LanthaScreen TR-FRET); conditions: read-out: FLT3 IC50
T1 sequence (P36888 27-993 D835Y): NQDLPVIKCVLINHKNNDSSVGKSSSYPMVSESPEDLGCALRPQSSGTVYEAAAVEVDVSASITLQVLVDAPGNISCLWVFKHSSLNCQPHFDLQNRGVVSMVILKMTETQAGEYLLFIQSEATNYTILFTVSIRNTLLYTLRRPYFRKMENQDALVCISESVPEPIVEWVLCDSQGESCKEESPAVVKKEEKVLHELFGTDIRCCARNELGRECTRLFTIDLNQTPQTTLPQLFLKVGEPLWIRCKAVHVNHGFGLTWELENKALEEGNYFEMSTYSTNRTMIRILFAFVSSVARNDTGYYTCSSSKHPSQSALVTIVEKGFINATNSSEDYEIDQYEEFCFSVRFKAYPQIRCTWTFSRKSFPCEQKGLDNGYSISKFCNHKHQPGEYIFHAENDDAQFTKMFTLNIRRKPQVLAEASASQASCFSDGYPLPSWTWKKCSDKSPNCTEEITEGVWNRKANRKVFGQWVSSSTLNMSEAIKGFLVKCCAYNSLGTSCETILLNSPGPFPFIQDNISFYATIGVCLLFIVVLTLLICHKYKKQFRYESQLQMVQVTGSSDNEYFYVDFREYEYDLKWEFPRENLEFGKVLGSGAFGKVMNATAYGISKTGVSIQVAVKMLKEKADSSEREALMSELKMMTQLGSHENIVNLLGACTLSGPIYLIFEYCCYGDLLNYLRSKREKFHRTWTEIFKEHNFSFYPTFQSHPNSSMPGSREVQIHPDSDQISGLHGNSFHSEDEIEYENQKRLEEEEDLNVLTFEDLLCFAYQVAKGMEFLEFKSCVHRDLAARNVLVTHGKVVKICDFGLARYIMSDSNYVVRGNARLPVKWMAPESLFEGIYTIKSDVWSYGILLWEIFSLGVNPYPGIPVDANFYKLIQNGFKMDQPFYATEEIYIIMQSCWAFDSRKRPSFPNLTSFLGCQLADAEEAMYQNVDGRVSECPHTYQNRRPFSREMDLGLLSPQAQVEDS
Outline: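 TR-FRET with 5.7 nM FLT3D835Y, 50 nM polyEAY substrate, 2 μM ATP (f.c.), 3 mM Mg and 3 mM Mn in 50 mM TRIS-HCl pH 7.4 with DTT, Tween 20 and Na3VO4. Reaction 1 h, stopped with EDTA, then Tb-labeled P-20 antibody for 45 min; single end-point reading.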

PKCα = PKCα (Homo sapiens, UniProt P17252); assay: PKCα kinase Caliper assay
Outline: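 Eight-point compound dilutions incubated with PKCα and peptide/ATP for 60 min at 30° C in 50 mM HEPES pH 7.5, 1 mM DTT, 0.02% Tween20, 0.02% BSA, 0.6% DMSO. Activity from phospho-peptide formed, separated by microfluidic mobility shift.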

PDGFRaV561D kinase = PDGFRaV561D kinase (Homo sapiens, UniProt P16234, V561D); assay: PDGFRaV561D kinase inhibition assay (LanthaScreen TR-FRET); conditions: read-out: PDGFRa IC50
Outline: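 TR-FRET end-point assay with 4.4 nM PDGFRa V561D kinase, 50 nM polyEAY, 10 mM Mn and 2 μM ATP (f.c.) in Tris pH 7.4 buffer. After 1 h, EDTA stop and Tb-labeled P-20 antibody added; read after 45 min in the dark.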

[1] = PKCα Caliper assay, read-out: PKC IC50

PDGFRaV561D kinase, sequence (P16234 24-1089 V561D): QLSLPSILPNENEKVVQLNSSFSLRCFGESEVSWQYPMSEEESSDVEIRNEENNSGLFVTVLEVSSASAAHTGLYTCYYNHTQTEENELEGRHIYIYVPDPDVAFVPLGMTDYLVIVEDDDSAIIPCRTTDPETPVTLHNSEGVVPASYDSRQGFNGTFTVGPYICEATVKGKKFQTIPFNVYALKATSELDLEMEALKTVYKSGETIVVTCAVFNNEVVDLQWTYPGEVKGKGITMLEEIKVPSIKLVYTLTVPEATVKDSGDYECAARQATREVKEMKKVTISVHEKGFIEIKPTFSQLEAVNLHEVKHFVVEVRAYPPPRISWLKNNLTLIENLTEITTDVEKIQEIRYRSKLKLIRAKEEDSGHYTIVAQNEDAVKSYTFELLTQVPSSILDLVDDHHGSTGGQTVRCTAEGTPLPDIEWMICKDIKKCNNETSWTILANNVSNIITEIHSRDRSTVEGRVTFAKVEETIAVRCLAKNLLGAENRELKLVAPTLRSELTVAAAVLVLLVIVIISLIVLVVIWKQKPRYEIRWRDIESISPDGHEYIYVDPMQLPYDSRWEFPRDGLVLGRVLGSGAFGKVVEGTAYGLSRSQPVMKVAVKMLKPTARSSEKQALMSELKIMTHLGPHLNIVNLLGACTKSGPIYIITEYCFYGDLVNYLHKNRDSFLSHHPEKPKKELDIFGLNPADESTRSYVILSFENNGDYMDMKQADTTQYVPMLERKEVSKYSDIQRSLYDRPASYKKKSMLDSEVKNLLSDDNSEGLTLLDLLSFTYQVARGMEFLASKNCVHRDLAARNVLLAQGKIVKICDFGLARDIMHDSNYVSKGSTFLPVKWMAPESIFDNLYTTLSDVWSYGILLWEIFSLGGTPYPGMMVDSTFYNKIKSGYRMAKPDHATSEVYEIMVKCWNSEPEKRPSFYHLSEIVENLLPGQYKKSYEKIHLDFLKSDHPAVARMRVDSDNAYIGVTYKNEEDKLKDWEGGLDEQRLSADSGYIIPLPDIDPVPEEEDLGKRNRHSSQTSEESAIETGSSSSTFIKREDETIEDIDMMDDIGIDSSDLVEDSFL

SMILES: Nc1ncc(-c2ccccc2)nc1C(=O)Nc1cnccc1[C@@H]1C[C@H](N)[C@]2(O)CCCC[C@@H]2O1 [Example 243, 3-amino-N-(4-((2S,4S,4aR,8aS)-4-amino-4a-hydroxyoctahydro-2H-chromen-2-yl)pyridin-3-yl)-6-phenylpyrazine-2-carboxamide]
- IC50 (FLT3D835Y kinase): 4100 nM
- IC50 (PKCα; [1]): 7200 nM
- IC50 (PDGFRaV561D kinase): 8300 nM

SMILES: Nc1ncc(-c2ccccc2)nc1C(=O)Nc1cnccc1[C@@H]1C[C@H](N)[C@@H](O)[C@H](C2CC2)O1 [Example 349, 3-amino-N-(4-((2S,4S,5R,6S)-4-amino-6-cyclopropyl-5-hydroxytetrahydro-2H-pyran-2-yl)pyridin-3-yl)-6-phenylpyrazine-2-carboxamide]
- IC50 (FLT3D835Y kinase): 250 nM
- IC50 (PKCα; [1]): 140 nM
- IC50 (PDGFRaV561D kinase): 3300 nM

SMILES: Nc1ncc(-c2ccccc2)nc1C(=O)Nc1cnccc1[C@@H]1C[C@H](N)[C@]2(O)CCC[C@@H]2O1 [Example 185, 3-amino-N-(4-((2S,4S,4aR,7aS)-4-amino-4a-hydroxyoctahydrocyclopenta[b]pyran-2-yl)pyridin-3-yl)-6-phenylpyrazine-2-carboxamide]
- IC50 (FLT3D835Y kinase): 1000 nM
- IC50 (PKCα; [1]): 650 nM
- IC50 (PDGFRaV561D kinase): 4100 nM

SMILES: C[C@@H]1O[C@H](c2ccncc2NC(=O)c2nc(-c3ccccc3)cnc2N)C[C@H](N)[C@@]1(C)O [Example 229, 3-amino-N-(4-((2S,4S,5R,6S)-4-amino-5-hydroxy-5,6-dimethyltetrahydro-2H-pyran-2-yl)pyridin-3-yl)-6-phenylpyrazine-2-carboxamide]
- IC50 (FLT3D835Y kinase): 93 nM
- IC50 (PKCα; [1]): 370 nM
- IC50 (PDGFRaV561D kinase): 1000 nM

SMILES: N[C@@H]1C[C@H](c2ccncc2NC(=O)c2ccc(F)c(-c3c(F)cccc3F)n2)O[C@@H]2CCC[C@H]12 [Example 224, N-(4-((2R,4R,4aR,7aR)-4-aminooctahydrocyclopenta[b]pyran-2-yl)pyridin-3-yl)-6-(2,6-difluorophenyl)-5-fluoropicolinamide]
- IC50 (FLT3D835Y kinase): 1600 nM
- IC50 (PKCα; [1]): > 10000 nM
- IC50 (PDGFRaV561D kinase): 390 nM

SMILES: CC[C@@H]1O[C@H](c2ccncc2NC(=O)c2nc(-c3ccccc3)cnc2N)C[C@H](N)[C@H]1O [Example 342, 3-amino-N-(4-((2S,4S,5R,6S)-4-amino-6-ethyl-5-hydroxytetrahydro-2H-pyran-2-yl)pyridin-3-yl)-6-phenylpyrazine-2-carboxamide]
- IC50 (FLT3D835Y kinase): 12 nM
- IC50 (PKCα; [1]): 71 nM
- IC50 (PDGFRaV561D kinase): 140 nM

SMILES: N[C@@H]1C[C@H](c2ccncc2NC(=O)c2ccc(F)c(-c3c(F)cccc3F)n2)O[C@@H]2CCC[C@]12O [Example 210, N-(4-((2R,4R,4aS,7aR)-4-amino-4a-hydroxyoctahydrocyclopenta[b]pyran-2-yl)pyridin-3-yl)-6-(2,6-difluorophenyl)-5-fluoropicolinamide]
- IC50 (FLT3D835Y kinase): 4200 nM
- IC50 (PKCα; read-out: PKC IC50): > 10000 nM
- IC50 (PDGFRaV561D kinase): 400 nM

SMILES: CC[C@]1(O)[C@H](N)C[C@H](c2ccncc2NC(=O)c2nc(-c3ccccc3)cnc2N)O[C@@H]1C [Example 187, 3-amino-N-(4-((2R,4R,5S,6R)-4-amino-5-ethyl-5-hydroxy-6-methyltetrahydro-2H-pyran-2-yl)pyridin-3-yl)-6-phenylpyrazine-2-carboxamide]
- IC50 (FLT3D835Y kinase): 1.7 nM
- IC50 (PKCα; [1]): 50 nM
- IC50 (PDGFRaV561D kinase): 25 nM

SMILES: Nc1ncc(-c2ccccc2)nc1C(=O)Nc1cnccc1[C@@H]1C[C@H](N)[C@@H]2CCC[C@@H]2O1 [Example 233, 3-amino-N-(4-((2S,4S,4aS,7aS)-4-aminooctahydrocyclopenta[b]pyran-2-yl)pyridin-3-yl)-6-phenylpyrazine-2-carboxamide]
- IC50 (FLT3D835Y kinase): 160 nM
- IC50 (PKCα; [1]): 550 nM
- IC50 (PDGFRaV561D kinase): 940 nM

SMILES: Nc1ncc(-c2ccccc2)nc1C(=O)Nc1cnccc1[C@@H]1C[C@H](O)[C@]2(O)CCCC[C@@H]2O1 [Example 176, 3-amino-N-(4-((2S,4S,4aR,8aS)-4,4a-dihydroxyoctahydro-2H-chromen-2-yl)pyridin-3-yl)-6-phenylpyrazine-2-carboxamide]
- IC50 (FLT3D835Y kinase): 1100 nM
- IC50 (PKCα; read-out: PKC IC50): 2600 nM
- IC50 (PDGFRaV561D kinase): 8000 nM

SMILES: CC1(C)C[C@H](N)C[C@@H](c2ccncc2NC(=O)c2nc(-c3ccccc3)cnc2N)O1 [Example 297, 3-amino-N-(4-((2S,4R)-4-amino-6,6-dimethyltetrahydro-2H-pyran-2-yl)pyridin-3-yl)-6-phenylpyrazine-2-carboxamide]
- IC50 (FLT3D835Y kinase): 23 nM
- IC50 (PKCα; [1]): 10 nM
- IC50 (PDGFRaV561D kinase): 150 nM

SMILES: CC[C@]1(O)[C@H](O)C[C@H](c2ccncc2NC(=O)c2nc(-c3c(F)cccc3F)ncc2N)O[C@@H]1C [Example 143, 5-amino-2-(2,6-difluorophenyl)-N-(4-((2R,4R,5S,6R)-5-ethyl-4,5-dihydroxy-6-methyltetrahydro-2H-pyran-2-yl)pyridin-3-yl)pyrimidine-4-carboxamide]
- IC50 (FLT3D835Y kinase): > 10000 nM
- IC50 (PKCα; read-out: PKC IC50): > 10000 nM
- IC50 (PDGFRaV561D kinase): > 10000 nM

SMILES: CC[C@]1(O)[C@H](N)C[C@H](c2ccncc2NC(=O)c2ccc(F)c(-c3c(F)cccc3F)n2)O[C@@H]1C [Example 232, N-(4-((2R,4R,5S,6R)-4-amino-5-ethyl-5-hydroxy-6-methyltetrahydro-2H-pyran-2-yl)pyridin-3-yl)-6-(2,6-difluorophenyl)-5-fluoropicolinamide]
- IC50 (FLT3D835Y kinase): 830 nM
- IC50 (PKCα; [1]): 9500 nM
- IC50 (PDGFRaV561D kinase): 630 nM

SMILES: CC(C)[C@@H]1C[C@H](N)C[C@H](c2ccncc2NC(=O)c2nc(-c3ccccc3)cnc2N)O1 [Example 291, 3-amino-N-(4-((2R,4S,6S)-4-amino-6-isopropyltetrahydro-2H-pyran-2-yl)pyridin-3-yl)-6-phenylpyrazine-2-carboxamide]
- IC50 (FLT3D835Y kinase): 5.3 nM
- IC50 (PKCα; [1]): 43 nM
- IC50 (PDGFRaV561D kinase): 81 nM

SMILES: CC(C)[C@H]1C[C@@H](N)C[C@@H](c2ccncc2NC(=O)c2nc(-c3ccccc3)cnc2N)O1 [Example 292, 3-amino-N-(4-((2S,4R,6R)-4-amino-6-isopropyltetrahydro-2H-pyran-2-yl)pyridin-3-yl)-6-phenylpyrazine-2-carboxamide]
- IC50 (FLT3D835Y kinase): 590 nM
- IC50 (PKCα; [1]): 100 nM
- IC50 (PDGFRaV561D kinase): 4400 nM

SMILES: Nc1cc(F)c(-c2c(F)cccc2F)nc1C(=O)Nc1cnccc1[C@H]1C[C@@H](N)[C@@]2(O)CCCC[C@H]2O1 [Example 238, 3-amino-N-(4-((2R,4R,4aS,8aR)-4-amino-4a-hydroxyoctahydro-2H-chromen-2-yl)pyridin-3-yl)-6-(2,6-difluorophenyl)-5-fluoropicolinamide]
- IC50 (FLT3D835Y kinase): 990 nM
- IC50 (PKCα): > 10000 nM
- IC50 (PDGFRaV561D kinase): 7500 nM

SMILES: Nc1ncc(-c2ccccc2)nc1C(=O)Nc1cnccc1[C@H]1C[C@@H](O)[C@@]2(O)CCC[C@H]2O1 [Example 195, 3-amino-N-(4-((2R,4R,4aS,7aR)-4,4a-dihydroxyoctahydrocyclopenta[b]pyran-2-yl)pyridin-3-yl)-6-phenylpyrazine-2-carboxamide]
- IC50 (FLT3D835Y kinase): 3.5 nM
- IC50 (PKCα; read-out: PKC IC50): 230 nM
- IC50 (PDGFRaV561D kinase): 33 nM

Source: patent publication US20130109682A1, “CYCLIC ETHER COMPOUNDS USEFUL AS KINASE INHIBITORS” (NOVARTIS AG, priority 2010, published 2013)
